{"source": "patent US9205064B2", "about": "“Methods for the diagnosis of oncological disorders using epimetabolic shifters, multidimensional intracellular molecules, or environmental influencers” (Berg LLC, priority 2009, dated 2015)", "key": {"[1]": {"tested_on": "SCC cells", "test": "Real-time PCR Heat Shock Protein Array", "format": "cell-based", "source_text": "(§1) The control cells were untreated cells.\n(§2) RNA was quantified by measuring Optical Density at 260 nm.\nHeat Shock Arrays were run for SCC cells and the data of regulated genes is summarized below in Table 13."}, "[2]": {"tested_on": "PaCa-2 pancreatic cancer cells", "test": "SeaHorse XF analyzer OCR and ECAR", "format": "cell-based", "source_text": "Environmental influencers (e.g., MIMs or Epi-shifters) may also be identified by changes in cellular energetics. One example of the measurement of cellular energetics are the real-time measures of the consumption of molecular oxygen and/or the change in pH of the media of a cell culture. For example, the ability of a potential epi-shifter to modulate the metabolic state of a cell may be analyzed using, for example, the XF24 Analyzer (Seahorse, Inc.). This technology allows for real time detection of oxygen and pH changes in a monolayer of cells in order to evaluate the bioenergetics of a cell microenvironment. The XF24 Analyzer measures and compares the rates of oxygen consumption (OCR), which is a measure of aerobic metabolism, and extracellular acidification (ECAR), which is a measure of glycolysis, both key indicators of cellular energetics.\n(SeaHorse Biosciences Inc, North Billerica, Mass.).\nIn contrast, cancer cells (e.g., MCF-7, PaCa-2) are inherently primed to culture at higher levels of glucose compared to normal cells due to their glycolytic phenotype for maintenance in culture.\nIn contrast to normal cells, cancer cells are phenotypically primed to use high glucose for ATP generation (enhanced glycolysis) resulting in higher ECAR (Table 55, ECAR for untreated normoxia 17 mM) at 21 mpH/min. […]"}, "[3]": {"tested_on": "SCC cells", "test": "Real-time PCR Apoptosis Array", "format": "cell-based", "method": "as §1, §2\nThe genes in the Apoptosis array that appear to be regulated in SCC cells are described in Table 7. […] By 24 hours, the regulation is decreased."}, "[4]": {"tested_on": "Pyruvate Dehydrogenase beta (PDH-E1)", "test": "Western blot of pyruvate dehydrogenase beta levels", "format": "cell-based, human", "method": "The samples were processed and run on a 4-12% Bis-Tris Novex NuPAGE gel as described above. The gels were run, transferred and stained essentially as described above.\nThe pyruvate kinase blots were stripped by incubating for 30 minutes with methanol, followed by two 10 minute washes with TBS-T, then 30 minutes of incubation with Stripping buffer at 50 deg C., and followed by two washes with 100 ml or more of TBS-T for 30′ each. The 2 blots were scanned in laser scanner to check for complete stripping. After making sure stripping of the antibody and the ECF reagent has worked, the blots were activated with methanol for 5 seconds, washed with water for 5 minutes, and TBST for 15 minutes. The blots are blocked for 1 hour with 5% blocking reagent in TBS-T at room temperature and then washed 3 times with TBS-T (1×-15′; 2×5′ each) and probed with the antibody for Pyruvate Dehydrogenase in 5% BSA (ABNOVA catalog #H00005162-M03) at 1:500 dilutions) overnight at 4 deg C. with shaking. […]\nThe levels of LDH and PDH were determined by probing the blots successively with primary antibodies for LDH and PDH, essentially as described above. […]"}}, "data": [{"smiles": "COC1=C(OC)C(=O)C(C/C=C(\\C)CC/C=C(\\C)CC/C=C(\\C)CC/C=C(\\C)CC/C=C(\\C)CC/C=C(\\C)CC/C=C(\\C)CC/C=C(\\C)CC/C=C(\\C)CCC=C(C)C)=C(C)C1=O", "note": "[Q10, Coenzyme Q10]", "values": [{"measurement": "DNAJB5 mRNA Regulation", "setting": "[1]; 100 μM Q10, 6 hours", "result": "Down regulated"}, {"measurement": "DNAJB13 mRNA Regulation", "setting": "[1]; 100 μM Q10, 6 hours", "result": "Down regulated"}, {"measurement": "DNAJC4 mRNA Regulation", "setting": "[1]; 100 μM Q10, 6 hours", "result": "Down regulated"}, {"measurement": "DNAJC5B mRNA Regulation", "setting": "[1]; 100 μM Q10, 6 hours", "result": "Down regulated"}, {"measurement": "DNAJC12 mRNA Regulation", "setting": "[1]; 100 μM Q10, 6 hours", "result": "Down regulated"}, {"measurement": "CCT6B mRNA Regulation", "setting": "[1]; 100 μM Q10, 24 hours", "result": "Down regulated"}, {"measurement": "OCR values", "setting": "[2]; absence and presence of stressors", "result": "consistent reduction"}, {"measurement": "ECAR rates", "setting": "[2]; normoxia, high glucose", "result": "significant decrease"}, {"measurement": "AKT1 mRNA Regulation", "setting": "[3]; 100 μM Q10, 6 hours", "result": "Down regulated at 6 hours and then"}, {"measurement": "BCL2L1 mRNA Regulation", "setting": "[3]; 100 μM Q10, 6 hours", "result": "Down regulated at 6 hours and then"}, {"measurement": "BIRC3 mRNA Regulation", "setting": "[3]; 100 μM Q10, 6 hours", "result": "Down regulated at 6 hours."}, {"measurement": "CARD6 mRNA Regulation", "setting": "[3]; 100 μM Q10, 6 hours", "result": "Down regulated at 6 hours."}, {"measurement": "CD27 mRNA Regulation", "setting": "[3]; 100 μM Q10, 6 hours", "result": "Down regulated at 6 hours."}, {"measurement": "CD40 mRNA Regulation", "setting": "[3]; 100 μM Q10, 6 hours", "result": "Down regulated at 6 hours."}, {"measurement": "CD70 mRNA Regulation", "setting": "[3]; 100 μM Q10, 6 hours", "result": "Down regulated at 6 hours."}, {"measurement": "TNFRSF9 mRNA Regulation", "setting": "[3]; 100 μM Q10, 6 hours", "result": "Down regulated at 6 hours."}, {"measurement": "TNFRSF21 mRNA Regulation", "setting": "[3]; 100 μM Q10, 6 hours", "result": "Down regulated at 6 hours."}, {"measurement": "TNFRSF25 mRNA Regulation", "setting": "[3]; 100 μM Q10, 6 hours", "result": "Down regulated at 6 hours and then"}, {"measurement": "TP73 mRNA Regulation", "setting": "[3]; 100 μM Q10, 6 hours", "result": "Down regulated at 6 hours and then"}, {"measurement": "AKT1 mRNA Regulation", "setting": "[3]; 100 μM Q10, 24 hours", "result": "up regulated at 24 hours."}, {"measurement": "BAG4 mRNA Regulation", "setting": "[3]; 100 μM Q10, 24 hours", "result": "Up regulated at 24 hours."}, {"measurement": "BAX mRNA Regulation", "setting": "[3]; 100 μM Q10, 24 hours", "result": "Up regulated at 24 hours."}, {"measurement": "BCL2L1 mRNA Regulation", "setting": "[3]; 100 μM Q10, 24 hours", "result": "up regulated at 24 hours."}, {"measurement": "BCL2 mRNA Regulation", "setting": "[3]; 100 μM Q10, 24 hours", "result": "Up regulated at 24 hours."}, {"measurement": "BNIP3 mRNA Regulation", "setting": "[3]; 100 μM Q10, 24 hours", "result": "Down regulated at 24 hours."}, {"measurement": "CASP6 mRNA Regulation", "setting": "[3]; 100 μM Q10, 24 hours", "result": "Up regulated at 24 hours."}, {"measurement": "CASP7 mRNA Regulation", "setting": "[3]; 100 μM Q10, 24 hours", "result": "Up regulated at 24 hours."}, {"measurement": "FADD mRNA Regulation", "setting": "[3]; 100 μM Q10, 24 hours", "result": "Up regulated at 24 hours."}, {"measurement": "GADD45A mRNA Regulation", "setting": "[3]; 100 μM Q10, 24 hours", "result": "Up regulated at 24 hours."}, {"measurement": "HRK mRNA Regulation", "setting": "[3]; 100 μM Q10, 24 hours", "result": "Up regulated at 24 hours."}, {"measurement": "TNFRSF25 mRNA Regulation", "setting": "[3]; 100 μM Q10, 24 hours", "result": "up regulated at 24 hours."}, {"measurement": "TNFSF10 mRNA Regulation", "setting": "[3]; 100 μM Q10, 24 hours", "result": "Up regulated at 24 hours."}, {"measurement": "TP53 mRNA Regulation", "setting": "[3]; 100 μM Q10, 24 hours", "result": "Up regulated at 24 hours."}, {"measurement": "TP73 mRNA Regulation", "setting": "[3]; 100 μM Q10, 24 hours", "result": "up regulated at 24 hours."}, {"measurement": "TRAF2 mRNA Regulation", "setting": "[3]; 100 μM Q10, 24 hours", "result": "Up regulated at 24 hours."}, {"measurement": "expression of PDH-E1", "setting": "[4]; cancer cells", "result": "progressive increase"}, {"measurement": "expression of PDH-E1", "setting": "[4]; normal cells", "result": "minimal changes"}]}]}
